In ChEMBL document CHEMBL4507319 (2021):

How the values were obtained:
Conditions in all cases: Compound concentration 1.0 uM
[1] = target: T1, Tyrosine-protein kinase Tec (Homo sapiens) (UniProt P42680); experiment: Tec(h) activated Eurofins kinase panel
T1 sequence (whole entry): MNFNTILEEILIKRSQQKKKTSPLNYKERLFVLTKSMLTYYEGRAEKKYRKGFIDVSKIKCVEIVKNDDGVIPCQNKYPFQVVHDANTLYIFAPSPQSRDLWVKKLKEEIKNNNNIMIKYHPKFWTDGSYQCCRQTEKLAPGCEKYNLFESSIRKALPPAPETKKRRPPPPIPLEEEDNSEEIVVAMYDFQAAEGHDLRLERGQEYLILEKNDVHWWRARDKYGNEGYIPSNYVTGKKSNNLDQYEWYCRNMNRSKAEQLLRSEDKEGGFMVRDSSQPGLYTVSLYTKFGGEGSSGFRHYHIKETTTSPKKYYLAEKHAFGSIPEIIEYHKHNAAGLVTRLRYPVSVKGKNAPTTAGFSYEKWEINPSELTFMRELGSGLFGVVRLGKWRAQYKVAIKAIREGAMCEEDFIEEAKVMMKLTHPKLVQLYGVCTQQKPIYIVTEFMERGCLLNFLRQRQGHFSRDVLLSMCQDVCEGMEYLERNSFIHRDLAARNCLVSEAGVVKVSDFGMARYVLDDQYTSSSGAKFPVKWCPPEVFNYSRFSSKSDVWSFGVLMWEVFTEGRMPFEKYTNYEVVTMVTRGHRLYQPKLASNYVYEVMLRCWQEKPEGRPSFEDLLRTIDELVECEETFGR

[2] = target: T2, Dual specificity protein kinase TTK (Homo sapiens) (UniProt P33981); experiment: TTK(h) Eurofins kinase panel
T2 sequence (whole entry): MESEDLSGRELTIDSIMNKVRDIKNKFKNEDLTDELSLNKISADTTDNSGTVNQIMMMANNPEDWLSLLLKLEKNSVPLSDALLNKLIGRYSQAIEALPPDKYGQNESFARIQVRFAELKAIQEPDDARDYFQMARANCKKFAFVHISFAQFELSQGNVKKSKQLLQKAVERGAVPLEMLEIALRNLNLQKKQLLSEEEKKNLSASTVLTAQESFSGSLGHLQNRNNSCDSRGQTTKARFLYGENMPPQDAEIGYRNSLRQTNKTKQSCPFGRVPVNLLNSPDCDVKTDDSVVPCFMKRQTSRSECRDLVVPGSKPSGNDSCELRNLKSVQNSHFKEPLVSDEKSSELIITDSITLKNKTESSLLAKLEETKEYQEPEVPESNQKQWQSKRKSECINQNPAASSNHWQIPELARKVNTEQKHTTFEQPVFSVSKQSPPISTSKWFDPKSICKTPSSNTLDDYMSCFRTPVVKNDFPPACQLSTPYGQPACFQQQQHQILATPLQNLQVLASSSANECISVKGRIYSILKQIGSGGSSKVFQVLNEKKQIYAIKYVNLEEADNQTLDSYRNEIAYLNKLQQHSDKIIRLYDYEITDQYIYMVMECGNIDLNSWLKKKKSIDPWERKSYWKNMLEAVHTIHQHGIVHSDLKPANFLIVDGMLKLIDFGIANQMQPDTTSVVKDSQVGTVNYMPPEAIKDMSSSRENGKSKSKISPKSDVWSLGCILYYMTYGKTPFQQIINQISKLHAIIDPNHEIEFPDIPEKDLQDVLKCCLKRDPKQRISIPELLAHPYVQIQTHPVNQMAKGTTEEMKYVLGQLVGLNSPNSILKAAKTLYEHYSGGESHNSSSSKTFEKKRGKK

[3] = target: Serine/threonine-protein kinase 24 (Homo sapiens, UniProt Q9Y6E0)
[4] = target: T3, Myosin-IIIb (Homo sapiens) (UniProt Q8WXR4); experiment: MYO3B(h) Eurofins kinase panel
T3 sequence (whole entry): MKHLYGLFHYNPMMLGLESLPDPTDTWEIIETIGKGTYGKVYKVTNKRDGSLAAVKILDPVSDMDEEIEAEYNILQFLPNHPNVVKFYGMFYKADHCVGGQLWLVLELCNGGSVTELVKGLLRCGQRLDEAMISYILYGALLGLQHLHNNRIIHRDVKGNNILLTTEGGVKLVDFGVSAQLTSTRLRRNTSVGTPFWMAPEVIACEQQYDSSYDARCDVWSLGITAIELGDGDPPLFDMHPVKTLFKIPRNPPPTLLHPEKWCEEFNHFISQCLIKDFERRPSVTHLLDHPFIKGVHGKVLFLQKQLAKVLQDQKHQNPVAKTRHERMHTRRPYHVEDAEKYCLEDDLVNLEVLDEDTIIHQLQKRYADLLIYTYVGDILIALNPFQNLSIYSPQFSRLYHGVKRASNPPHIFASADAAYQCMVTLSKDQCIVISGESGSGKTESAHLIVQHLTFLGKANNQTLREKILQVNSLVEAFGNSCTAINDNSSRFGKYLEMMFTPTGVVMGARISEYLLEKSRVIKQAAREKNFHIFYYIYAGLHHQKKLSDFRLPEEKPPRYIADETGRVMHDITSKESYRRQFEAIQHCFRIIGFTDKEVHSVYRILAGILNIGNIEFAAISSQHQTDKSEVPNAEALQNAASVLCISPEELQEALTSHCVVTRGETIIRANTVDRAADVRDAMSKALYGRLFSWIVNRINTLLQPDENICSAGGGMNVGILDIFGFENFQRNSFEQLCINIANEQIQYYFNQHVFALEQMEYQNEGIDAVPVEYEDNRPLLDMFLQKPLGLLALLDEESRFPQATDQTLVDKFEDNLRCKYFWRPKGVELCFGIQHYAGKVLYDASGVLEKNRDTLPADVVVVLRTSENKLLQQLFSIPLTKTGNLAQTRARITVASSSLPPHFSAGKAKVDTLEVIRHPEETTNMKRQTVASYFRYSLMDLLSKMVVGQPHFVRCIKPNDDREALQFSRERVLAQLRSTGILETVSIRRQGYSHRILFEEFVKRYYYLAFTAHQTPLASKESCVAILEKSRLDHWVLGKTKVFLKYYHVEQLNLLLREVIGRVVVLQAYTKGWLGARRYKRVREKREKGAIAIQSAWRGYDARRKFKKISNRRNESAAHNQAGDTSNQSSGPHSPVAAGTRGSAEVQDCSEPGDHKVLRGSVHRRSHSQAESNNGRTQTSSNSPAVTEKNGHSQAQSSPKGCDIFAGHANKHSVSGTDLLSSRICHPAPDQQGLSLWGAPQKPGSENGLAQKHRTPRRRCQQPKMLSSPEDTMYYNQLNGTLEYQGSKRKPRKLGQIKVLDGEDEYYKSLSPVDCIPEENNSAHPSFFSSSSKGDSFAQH

Measured: % residual kinase activity

Sequence of Serine/threonine-protein kinase 24 (Q9Y6E0 whole entry, looked up): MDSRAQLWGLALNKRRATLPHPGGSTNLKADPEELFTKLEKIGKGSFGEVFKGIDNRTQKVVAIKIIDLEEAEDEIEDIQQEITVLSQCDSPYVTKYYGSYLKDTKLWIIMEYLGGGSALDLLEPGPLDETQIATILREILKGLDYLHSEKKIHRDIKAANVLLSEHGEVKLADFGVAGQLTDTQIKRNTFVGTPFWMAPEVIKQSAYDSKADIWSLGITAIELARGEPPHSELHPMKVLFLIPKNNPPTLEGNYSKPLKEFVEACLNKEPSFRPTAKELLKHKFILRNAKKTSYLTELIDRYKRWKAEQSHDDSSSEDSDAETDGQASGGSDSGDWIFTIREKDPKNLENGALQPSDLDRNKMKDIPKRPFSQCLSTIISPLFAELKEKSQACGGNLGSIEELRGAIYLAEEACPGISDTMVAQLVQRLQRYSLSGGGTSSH

CCc1ccccc1C(=O)Nc1n[nH]c2c(C)c(F)c(C3C(C#N)=C(C)N(C)C(C)=C3C#N)cc12 [BAY-3827]
inactive: [1] 100% | [2] 90% | [3] 17% | [4] 24%
